In patent publication US20230219986A1, “NOVEL AMINOPYRIMIDINE EGFR INHIBITOR” (QILU PHARMACEUTICAL CO., LTD., priority 2020, published 2023):
Marks after values point to notes of the source that are not given here.

What was measured:
[1] = test system: EGFR wild-type cell line A431; experiment: Cell proliferation inhibition experiment (CellTiter-Glo), A431; format: cell-based; settings: Homo sapiens, A-431, 72 h, A431 cells, Cell Titer-Glo, read-out: A431 EGFR WT IC50
How it was run: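 A431 cells, 800 per well, were cultured 24 h and then exposed to serially diluted compound (0.1% DMSO final) for 72 h at 37° C., 5% CO2.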

[2] = target: Ba/F3 De119/T790M/C797S EGFR triple mutant cell line (Homo sapiens, UniProt P00533, T790M/C797S, cells depend on it, form not given); experiment: Cell proliferation inhibition experiment (CellTiter-Glo), Ba/F3 De119/T790M/C797S; format: cell-based; settings: Ba/F3 Del19/T790M/C797S EGFR triple mutant cells, 72 hours, Cell Titer-Glo; read-out: Ba/F3 (Del19/T790M/C797S) IC50
[3] = target: Ba/F3 L858R/T790M/C797S EGFR triple mutant cell line (Homo sapiens, UniProt P00533, T790M/C797S/L858R, cells depend on it); experiment: Cell proliferation inhibition experiment (CellTiter-Glo), Ba/F3 L858R/T790M/C797S; format: cell-based; settings: 72 hours, Cell Titer-Glo, read-out: Ba/F3 (L858R/T790M/C797S) IC50
[4] = target: T1, L858R/T790M/C797S triple mutant EGFR (Homo sapiens, UniProt P00533, C797S/L858R/T790M); experiment: Enzymology experiment in vitro (HTRF/FRET kinase activity), L858R/T790M/C797S triple mutant EGFR; format: biochemical; settings: HTRF KinEASE-TK, read-out: EGFR (L858R/T790M/C797S) IC50
T1 construct: purchased Signalchem
How it was run: (§1)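 HTRF KinEASE-TK format: EGFR enzyme preincubated with compound 10 min at room temperature, then peptide substrate plus ATP added for 40 min. Detection with EDTA, XL665-streptavidin and Eu³⁺-labeled antibody for 1 h.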

wild-type EGFR = target: T2, wild-type EGFR (Homo sapiens, UniProt P00533); experiment: Enzymology experiment in vitro (HTRF/FRET kinase activity), wild-type EGFR; format: biochemical; settings: HTRF KinEASE-TK, read-out: EGFR (WT) IC50
T2 construct: purchased Signalchem
How it was run: as §1

[5] = test system: PC9 (De119/T790M/C797S) nude mice xenograft model; experiment: In vivo efficacy research experiment A (compound 242); design: species or system BALB/c-nu mice; settings: for Tumor volume (mm^3): mean ± standard error
Method: To evaluate the antitumor activity and toxic side effects of compound 242 orally administered for 21 days in PC9 (De119/T790M/C797S) nude mice xenograft model.
BALB/c-nu mice, female, SPF grade, purchased from Beijing Vital River Laboratory Animal Technology Co., Ltd.
PC9 (De119/T790M/C797S) cells, constructed by Qilu Pharmaceutical Co., Ltd.
PC9 (De119/T790M/C797S) cells were cultured in RPMI 1640 medium containing 10% FBS at 37° C. in a 5% carbon dioxide incubator; cells in exponential growth phase were collected and inoculated.
Under sterile conditions, PC9 (De119/T790M/C797S) cell suspension cultured in vitro was taken, the cell concentration was adjusted to 5×10^7 cells /mL after centrifugation, and subcutaneously inoculated under the right armpit of mice (0.1 mL/ mouse). The day of inoculation was set as day 0.
a, When the average tumor volume was about 180 mm^3, 24 mice with moderate tumor volume were selected and randomly divided into 3 groups according to the tumor volume: G1: solvent control group, G2: compound 242 (25 mg/kg) and G3: compound 242 (75/50 mg/kg), 8 mice/group.
b, After animals were grouped, administration was started, and the administration volume was 10 mL/kg, administered orally (po); administered by weight once a day for 21 consecutive days; tumor diameter was measured twice a week.
c, Tumor volume (TV): the tumor volume was measured twice a week to observe the volume change and growth rate of the tumor. Tumor volume V=½×a×b^2, where a and b represent the long and short diameters of the tumor, respectively. The growth inhibition effect of the compounds on tumor tissue was evaluated by tumor growth inhibition rate TGI (%). […] The data of the administration group and the negative control group were taken on the same day.
d, During the experiment, the living conditions of the mice, including appearance signs, general behavior, mental state, food intake, respiratory state, feces and urine characteristics, local injection site and other toxicity manifestations, were closely observed.
e, After the experiment reached the end point, the mice were euthanized, and the animal carcasses were frozen in a freezer and handed over to a qualified medical waste disposal unit for disposal.

[6] = 25 mg/kg po once a day for 21 days
[7] = 75 (D1-D6), 50 (D7-D21) mg/kg po once a day

T1 sequence (P00533 25-1210 T790M/C797S/L858R): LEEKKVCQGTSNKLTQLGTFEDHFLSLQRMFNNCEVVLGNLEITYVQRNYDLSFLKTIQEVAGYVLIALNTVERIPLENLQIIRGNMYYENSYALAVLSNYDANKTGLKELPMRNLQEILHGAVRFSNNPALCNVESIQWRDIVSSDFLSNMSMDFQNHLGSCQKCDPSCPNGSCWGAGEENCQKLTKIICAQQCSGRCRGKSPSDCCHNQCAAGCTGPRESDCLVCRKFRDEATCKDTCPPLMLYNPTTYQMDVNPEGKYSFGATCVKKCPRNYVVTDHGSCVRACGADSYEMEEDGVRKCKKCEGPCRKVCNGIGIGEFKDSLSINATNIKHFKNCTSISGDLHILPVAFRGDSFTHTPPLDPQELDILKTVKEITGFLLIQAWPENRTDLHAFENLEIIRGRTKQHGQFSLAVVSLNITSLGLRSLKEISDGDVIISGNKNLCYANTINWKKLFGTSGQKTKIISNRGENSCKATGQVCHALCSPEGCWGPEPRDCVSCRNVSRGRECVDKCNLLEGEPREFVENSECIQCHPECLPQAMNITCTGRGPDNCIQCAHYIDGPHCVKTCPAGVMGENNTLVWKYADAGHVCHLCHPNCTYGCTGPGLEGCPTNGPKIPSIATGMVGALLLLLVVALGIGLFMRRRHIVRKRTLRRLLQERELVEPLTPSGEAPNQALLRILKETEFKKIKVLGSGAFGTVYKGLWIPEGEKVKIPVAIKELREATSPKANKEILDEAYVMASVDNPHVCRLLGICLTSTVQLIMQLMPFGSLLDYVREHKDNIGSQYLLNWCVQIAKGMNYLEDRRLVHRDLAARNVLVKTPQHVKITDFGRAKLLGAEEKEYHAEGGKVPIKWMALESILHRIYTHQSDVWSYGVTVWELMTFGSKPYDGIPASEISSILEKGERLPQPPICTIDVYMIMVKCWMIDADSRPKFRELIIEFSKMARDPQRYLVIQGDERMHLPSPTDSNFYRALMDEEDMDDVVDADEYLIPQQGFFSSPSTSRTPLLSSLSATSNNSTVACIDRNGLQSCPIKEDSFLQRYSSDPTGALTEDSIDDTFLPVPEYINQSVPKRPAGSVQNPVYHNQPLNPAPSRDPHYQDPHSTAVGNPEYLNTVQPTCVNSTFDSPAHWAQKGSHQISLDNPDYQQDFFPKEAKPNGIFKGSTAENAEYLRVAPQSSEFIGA
Sequence of Ba/F3 L858R/T790M/C797S EGFR triple mutant cell line (P00533 whole entry T790M/C797S/L858R): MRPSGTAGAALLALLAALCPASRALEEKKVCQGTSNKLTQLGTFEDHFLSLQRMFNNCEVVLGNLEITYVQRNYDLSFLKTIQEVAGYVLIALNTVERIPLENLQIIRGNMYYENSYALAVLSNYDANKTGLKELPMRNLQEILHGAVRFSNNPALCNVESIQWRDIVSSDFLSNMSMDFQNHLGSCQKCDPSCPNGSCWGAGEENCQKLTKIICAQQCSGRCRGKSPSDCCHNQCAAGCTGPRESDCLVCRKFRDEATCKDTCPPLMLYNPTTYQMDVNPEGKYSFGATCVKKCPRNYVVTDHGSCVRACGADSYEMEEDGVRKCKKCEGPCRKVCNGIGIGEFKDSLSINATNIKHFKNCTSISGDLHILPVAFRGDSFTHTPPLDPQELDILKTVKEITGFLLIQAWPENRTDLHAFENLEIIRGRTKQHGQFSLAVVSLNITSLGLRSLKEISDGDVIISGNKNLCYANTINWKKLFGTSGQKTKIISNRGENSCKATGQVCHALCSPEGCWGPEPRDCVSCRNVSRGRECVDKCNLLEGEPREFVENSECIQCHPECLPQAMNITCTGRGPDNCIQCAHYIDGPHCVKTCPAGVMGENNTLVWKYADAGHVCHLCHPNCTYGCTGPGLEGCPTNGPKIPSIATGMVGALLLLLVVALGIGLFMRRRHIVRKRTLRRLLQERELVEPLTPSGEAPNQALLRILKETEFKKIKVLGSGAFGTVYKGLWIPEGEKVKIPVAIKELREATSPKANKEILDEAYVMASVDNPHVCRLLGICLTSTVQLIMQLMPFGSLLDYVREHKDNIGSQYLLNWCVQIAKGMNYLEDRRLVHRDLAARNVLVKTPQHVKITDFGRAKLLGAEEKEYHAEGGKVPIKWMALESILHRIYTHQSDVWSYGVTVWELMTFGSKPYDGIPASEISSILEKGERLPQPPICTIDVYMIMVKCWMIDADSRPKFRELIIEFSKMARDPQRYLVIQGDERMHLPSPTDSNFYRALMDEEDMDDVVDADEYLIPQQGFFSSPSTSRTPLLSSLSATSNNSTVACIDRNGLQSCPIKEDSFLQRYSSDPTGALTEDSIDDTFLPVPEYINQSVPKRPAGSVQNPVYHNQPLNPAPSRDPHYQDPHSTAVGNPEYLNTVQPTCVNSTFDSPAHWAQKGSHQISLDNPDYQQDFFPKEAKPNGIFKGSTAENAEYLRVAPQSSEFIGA
Sequence of Ba/F3 De119/T790M/C797S EGFR triple mutant cell line (P00533 with tags, fused parts or gaps DEL746-750/T790M/C797S, form open): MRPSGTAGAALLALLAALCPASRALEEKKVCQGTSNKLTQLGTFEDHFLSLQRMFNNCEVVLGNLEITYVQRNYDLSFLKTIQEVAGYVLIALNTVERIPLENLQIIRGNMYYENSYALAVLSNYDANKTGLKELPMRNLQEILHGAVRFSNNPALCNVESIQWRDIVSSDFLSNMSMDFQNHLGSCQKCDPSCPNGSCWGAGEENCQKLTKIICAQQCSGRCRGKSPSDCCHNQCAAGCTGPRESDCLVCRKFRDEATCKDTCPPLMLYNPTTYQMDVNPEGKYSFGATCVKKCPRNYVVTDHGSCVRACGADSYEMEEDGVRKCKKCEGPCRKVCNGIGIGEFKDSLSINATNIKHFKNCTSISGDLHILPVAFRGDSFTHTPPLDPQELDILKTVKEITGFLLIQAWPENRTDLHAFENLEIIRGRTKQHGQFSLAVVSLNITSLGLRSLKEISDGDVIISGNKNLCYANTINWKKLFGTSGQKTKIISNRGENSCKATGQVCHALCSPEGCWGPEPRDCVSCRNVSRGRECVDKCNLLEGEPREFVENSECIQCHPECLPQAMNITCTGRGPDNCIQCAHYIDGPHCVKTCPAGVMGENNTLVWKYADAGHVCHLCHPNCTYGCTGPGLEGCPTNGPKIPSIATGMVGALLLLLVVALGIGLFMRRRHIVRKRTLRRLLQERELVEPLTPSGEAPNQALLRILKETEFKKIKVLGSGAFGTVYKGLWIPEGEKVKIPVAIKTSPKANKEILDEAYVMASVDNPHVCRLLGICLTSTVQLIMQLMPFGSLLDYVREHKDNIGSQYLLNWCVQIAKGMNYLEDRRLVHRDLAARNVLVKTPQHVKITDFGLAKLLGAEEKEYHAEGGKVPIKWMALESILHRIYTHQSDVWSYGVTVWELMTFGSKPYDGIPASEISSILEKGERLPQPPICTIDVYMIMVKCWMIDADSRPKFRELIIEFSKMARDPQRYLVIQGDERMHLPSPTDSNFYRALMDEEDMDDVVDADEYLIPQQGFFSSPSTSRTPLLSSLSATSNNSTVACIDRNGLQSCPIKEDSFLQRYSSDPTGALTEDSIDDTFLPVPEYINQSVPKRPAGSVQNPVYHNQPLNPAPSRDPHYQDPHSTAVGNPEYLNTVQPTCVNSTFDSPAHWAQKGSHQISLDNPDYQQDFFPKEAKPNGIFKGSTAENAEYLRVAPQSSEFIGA
T2 sequence (P00533 25-1210): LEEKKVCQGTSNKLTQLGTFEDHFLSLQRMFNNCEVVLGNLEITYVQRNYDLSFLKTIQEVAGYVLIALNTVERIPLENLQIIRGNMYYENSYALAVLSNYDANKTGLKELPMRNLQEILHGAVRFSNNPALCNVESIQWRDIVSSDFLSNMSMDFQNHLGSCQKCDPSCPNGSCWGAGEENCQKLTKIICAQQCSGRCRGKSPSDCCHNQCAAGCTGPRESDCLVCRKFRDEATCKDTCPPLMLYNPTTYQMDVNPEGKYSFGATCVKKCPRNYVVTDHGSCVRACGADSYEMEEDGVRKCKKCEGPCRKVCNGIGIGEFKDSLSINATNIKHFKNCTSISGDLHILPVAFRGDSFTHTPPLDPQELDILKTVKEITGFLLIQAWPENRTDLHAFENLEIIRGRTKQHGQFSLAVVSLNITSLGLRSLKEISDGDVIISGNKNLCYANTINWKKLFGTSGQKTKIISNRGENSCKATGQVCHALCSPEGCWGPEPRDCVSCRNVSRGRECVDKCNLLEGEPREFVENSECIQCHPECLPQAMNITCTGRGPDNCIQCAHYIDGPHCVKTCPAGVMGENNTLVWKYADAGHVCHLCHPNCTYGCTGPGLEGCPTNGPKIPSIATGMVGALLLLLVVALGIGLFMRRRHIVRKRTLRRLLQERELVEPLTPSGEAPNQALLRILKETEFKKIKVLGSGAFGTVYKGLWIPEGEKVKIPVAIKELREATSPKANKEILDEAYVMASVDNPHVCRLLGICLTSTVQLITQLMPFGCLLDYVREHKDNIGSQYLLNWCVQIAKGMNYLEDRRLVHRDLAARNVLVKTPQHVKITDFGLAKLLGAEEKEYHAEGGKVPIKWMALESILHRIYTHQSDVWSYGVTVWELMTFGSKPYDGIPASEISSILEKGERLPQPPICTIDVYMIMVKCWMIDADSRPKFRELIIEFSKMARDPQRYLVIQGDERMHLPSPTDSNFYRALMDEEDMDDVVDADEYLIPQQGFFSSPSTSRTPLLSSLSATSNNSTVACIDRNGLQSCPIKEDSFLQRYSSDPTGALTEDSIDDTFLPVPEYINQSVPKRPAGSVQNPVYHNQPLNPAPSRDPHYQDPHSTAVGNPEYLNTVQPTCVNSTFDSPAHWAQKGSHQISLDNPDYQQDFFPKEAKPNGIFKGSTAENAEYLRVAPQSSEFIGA

| SMILES | IC50 [1] [nM] | GI50 [2] [nM] | GI50 [3] [nM] | IC50 [4] [nM] | IC50 (wild-type EGFR) [nM] | tolerability of mice ([5]; 25 mg/kg and 50 mg/kg doses) | TGI (%) [5, 6] [%] | Weight change (%) [5, 6] [%] | Tumor volume (mm^3) [5, 6] | tumor growth inhibition (in words) ([5]; 25, 75/50 mg/kg) | TGI (%) [5, 7] [%] | Weight change (%) [5, 7] [%] | Tumor volume (mm^3) [5, 7] |
| --- | --- | --- | --- | --- | --- | --- | --- | --- | --- | --- | --- | --- | --- |
| COc1cc(N2CCC3(CCN(CC4(F)CC4)CC3)CC2)c(-c2cnn(C)c2)cc1Nc1ncc(Br)c(Nc2ccc3nccnc3c2P(C)(C)=O)n1 [compound 242, (6-((5-Bromo-2-((4-(9-((1-fluorocyclopropyl)methyl)-3,9-diazaspiro[5.5]undecan-3yl)-2-methoxy-5-(1-methyl-1H-pyrazol-4-yl)phenyl)amino)pyrimidin-4-yl)amino)quinoxalin-5-yl)dimethylphosphine oxide] | 75.7 | 1.36 | 3.07 | 0.4 | 2.4 | well tolerated | 102 | 2.4 | 139.8 ± 13.7** mm^3 | significantly inhibit tumor growth | 105 | −3.4 | 64.0 ± 11.9** mm^3 |
| COc1cc(N2CCNC(=O)C2)c(-c2cnn(C)c2)cc1Nc1ncc(Br)c(Nc2ccc3nccnc3c2P(C)(C)=O)n1 [compound 105] | 1190 | 20.9 | 61.9 | 0.16 | 5.62 |  |  |  |  |  |  |  |  |
| CCOc1nc(N2CCOCC2)c(-c2cnn(C)c2)cc1Nc1ncc(Br)c(Nc2ccc3nccnc3c2P(C)(C)=O)n1 [compound 36] | 320 | 2.63 | 17.7 | 0.54 | 21.9 |  |  |  |  |  |  |  |  |
| COc1cc(N2CCN(CC3(C#N)CC3)CC2)c(-c2cnn(C)c2)cc1Nc1ncc(Br)c(Nc2ccc3nccnc3c2P(C)(C)=O)n1 [compound 237, 1-((4-(4-((5-Bromo-4-((5-(dimethylphosphoryl)quinoxalin-6-yl)amino)pyrimidin-2-yl)amino)-5-methoxy-2-(1-methyl-1H-pyrazol-4-yl)phenyl)piperazin-1-yl)methyl)cyclopropane-1-carbonitrile] | 129 | 1.26 | 3.05 | 0.52 | 5.2 |  |  |  |  |  |  |  |  |
| COc1nc(N2CCOCC2)c(-c2cnn(C)c2)cc1Nc1ncc(Br)c(Nc2ccc3nccnc3c2P(C)(C)=O)n1 [Compound 7, (6-((5-bromo-2-((2-methoxy-5-(1-methyl-1H-pyrazol-4-yl)-6-morpholinylpyridin-3-yl)amino)pyrimidin-4-yl)amino)quinoxalin-5-yl)dimethylphosphine oxide] | 159 | 4.43 | 14.8 | 0.23 | 9.88 |  |  |  |  |  |  |  |  |
| COc1cc(C23CCOCC2C3)c(-c2cnn(C)c2)cc1Nc1ncc(Br)c(Nc2ccc3nccnc3c2P(C)(C)=O)n1 (stereo not shown) [compound 77] | 480 | 14.4 | 26.4 | 1.24 | 114 |  |  |  |  |  |  |  |  |
| Cn1cc(-c2cc3c(c(Nc4ncc(Br)c(Nc5ccc6nccnc6c5P(C)(C)=O)n4)c2)OCC3)cn1 [compound 39] | 41.3 | 4.07 | 9.69 | 0.06 | 7.45 |  |  |  |  |  |  |  |  |

The next lines start with results.

| IC50 [1] [nM] | GI50 [2] [nM] | GI50 [3] [nM] | IC50 [4] [nM] | IC50 (wild-type EGFR) [nM] | SMILES | tolerability of mice ([5]; 25 mg/kg and 50 mg/kg doses) | TGI (%) [5, 6] [%] | Weight change (%) [5, 6] [%] | Tumor volume (mm^3) [5, 6] | tumor growth inhibition (in words) ([5]; 25, 75/50 mg/kg) | TGI (%) [5, 7] [%] | Weight change (%) [5, 7] [%] | Tumor volume (mm^3) [5, 7] |
| --- | --- | --- | --- | --- | --- | --- | --- | --- | --- | --- | --- | --- | --- |
| 376 | 1.62 | 3.21 | 3.36 | 78.5 | COc1cc(N2CCC3(CCN(CC(F)F)CC3)CC2)c(-c2cnn(C)c2)cc1Nc1ncc(Br)c(Nc2ccc3nccnc3c2P(C)(C)=O)n1 [compound 149] |  |  |  |  |  |  |  |  |
| 354 | 14.3 | 24.8 | 0.61 | 10.9 | COc1cc(N2CCC(N3CCN(C)CC3)C(F)C2)c(-c2cnn(C)c2)cc1Nc1ncc(Br)c(Nc2ccccc2N(C)S(=O)(=O)C2CC2)n1 (stereo not shown) [compound 211] |  |  |  |  |  |  |  |  |
| 307 | 4.63 | 7.85 | 0.6 | 2.39 | COc1cc(N2CCC(N3CC(C)OC(C)C3)CC2)c(-c2cnn(C)c2)cc1Nc1ncc(Br)c(Nc2ccc3nccnc3c2P(C)(C)=O)n1 (racemic) [compound 174] |  |  |  |  |  |  |  |  |
| 179 | 1.44 | 5.47 | 0.38 | 8.43 | COc1cc(N2CCC3(CN(C)CCO3)C2)c(-c2cnn(C)c2)cc1Nc1ncc(Br)c(Nc2ccc3nccnc3c2P(C)(C)=O)n1 (stereo not shown) [compound 146] |  |  |  |  |  |  |  |  |
| 298 | 7.62 | 30.2 | 0.62 | 8.46 | COc1cc(N2CCC3CCN(CCOC(C)C)C3C2)c(-c2cnn(C)c2)cc1Nc1ncc(Br)c(Nc2ccc3nccnc3c2P(C)(C)=O)n1 (stereo not shown) [compound 206] |  |  |  |  |  |  |  |  |
| 45.7 | 2.06 | 7.32 | 0.29 | 1.71 | COc1cc(N2CCC(N(C)C)C(F)C2)c(-c2cnn(C)c2)cc1Nc1ncc(Br)c(Nc2ccc3nccnc3c2P(C)(C)=O)n1 (stereo not shown) [compound 216] |  |  |  |  |  |  |  |  |
| 246 | 14.4 | 27 | 1.12 | 12.2 | COc1cc(N2CCC3(CCN(C)CC3)CC2)c(-c2cnn(C)c2)cc1Nc1ncc(Br)c(Nc2ccccc2N(C)S(=O)(=O)C2CC2)n1 [compound 183, N-(2-((5-Bromo-2-((2-methoxy-5-(1-methyl-1H-pyrazol-4-yl)-4-)(9-methyl-3,9-diazaspiro[5.5]undecan-3-yl)phenyl)amino)pyrimidin-4-yl)amino)phenyl-N-methylcyclopropanesulfonamide] |  |  |  |  |  |  |  |  |
| 49.4 | 1.28 | 7.05 | 0.33 | 3.6 | COc1cc(N2CCN(CC3CC3)CC2)c(-c2cnn(C)c2)cc1Nc1ncc(Br)c(Nc2ccc3nccnc3c2P(C)(C)=O)n1 [compound 157] |  |  |  |  |  |  |  |  |
| 195 | 3.22 | 8.26 | 0.73 | 5.3 | COc1cc(N2CCN(C(C)C)C(CF)C2)c(-c2cnn(C)c2)cc1Nc1ncc(Br)c(Nc2ccc3nccnc3c2P(C)(C)=O)n1 (stereo not shown) [compound 164] |  |  |  |  |  |  |  |  |
